Measurements as given in patent US7335248B2, “Marine antifouling coating compositions” (Novus International, Inc., priority 2005, dated 2008).
Values joined by “and” are separate entries in the source; they are usually repeats but may differ in a detail not shown here. Equal values may be shown once. Read-outs that look alike come from different tables or passages of the source.

Assays:
[1] = tested on: Oyster; conditions: 5%, 15 months, per panel side
Description: (§1) HMTBA-Cu and HMTBA-Zn were supplied in powdered form by Novus International. […] The formulated paints were applied on PVC test panels (3 inch by 10 inch, ⅛ inch thickness), allowed to dry and shipped to a marine research center at Sacred Heart Marine Research Centre (SHMRC) in Tuticorin, India. The panels were mounted on frames on a floating platform in the open ocean and submerged totally under 3 ft of seawater for a period of 6 months, 9, or 12 months.
(§2) After the completion of the exposure period the panels were taken out of the seawater and transported to the shore laboratory in containers with seawater. The panels were evaluated by digital photography and physical examination of the coated surface. Barnacles were counted on the surface of the panels and along the edges. When there was substantial fouling on the surface, the area of the panel surface covered by barnacle fouling was estimated according to the methods described in ASTM D-3623. The panels were returned to the platform and again placed in total immersion. The panels were out of seawater during the examination for no more than 10 minutes.

[2] = tested on: Tube-worms; conditions: CuSP paint; 5%; 15 months; per panel side; nitrate trihydrate
Description: as §1, §2

[3] = tested on: barnacles; conditions: 5%, 15 months, per panel side
Description: as §1, §2

[4] = tested on: barnacle cyprids; assay: Barnacle cyprid settlement assay (method of Rittschof et al.), EC50 by probit analysis; type: in vivo, Balanus amphitrite amphitrite
Procedure: In this case, the defined effect is that the cyprids have not settled and have not attached to the Petri dish. Thus, in the attached data set, the “set” column indicates the total number of cyprid larvae that have settled and attached on the surface of the Petri dish and “non-set” indicates the total number of cyprids that remain swimming in the seawater and have not settled on the surface of the Petri dish.
Briefly, the barnacle adults are cultured in the laboratory and allowed to spawn naturally. The larvae are harvested and grown in artificial culture systems until they reach the cyprid stage at which time the larvae become competent to attach to surfaces. Once attached, the cyprids transform into a pinhead barnacle, thus becoming permanently attached to the surface. Rittschof D, Clare A S, Gerhart D J, Avelin Mary, Bonavetura J (1991) Barnacle in vitro assays for biologically active substances: toxicity and settlement assays using mass cultured Balanus amphitrite amphitrite Darwin. Biofouling (1992) 6:115-122.
(§3) Five replicates (e.g., a-e) for each concentration and the control were collected.

[5] = Solubility in seawater at the levels added in the cyprid assay; type: physicochemical; conditions: at the levels added (up to 0.1 mg/ml)
Description: as §3

[6] = tested on: barnacles; assay: Six month static immersion fouling test of painted PVC panels (open ocean, Tuticorin, India); type: in vivo; conditions: for Total barnacle Count / Mean ± SD (barnacle count): 6 months; for Total barnacle Count: both duplicate panels; for Mean ± SD (barnacle count): four panel surfaces
Description: The reported data were extracted from the raw data as described below, and are shown as total barnacle counts for both duplicate panels of each test formulation. In Table 4, the mean and standard deviation of the data derived from the four panels' surfaces of the duplicate panels for each group. The barnacle counts along the edges were not considered in this evaluation because of the expected uneven coating and inherent tendency of barnacles to first attach to edges. In addition, coatings along the edges can be easily damaged or uneven. Thus, for evaluation purposes only the coated surfaces of the flat areas were considered for this evaluation.
Zinc Omadine was used as the positive control for this series of tests. It is important to note here that fouling is continuous throughout the year at the Tuticorin, India site and the degree of settlement is generally the same for the same coating system.

[7] = tested on: barnacles; assay: Nine month static immersion testing in the Indian Ocean; type: in vivo; conditions: 9-month static immersion
Description: Table 5 summarizes the anti-fouling data from the nine-month immersion test, performed as described above for the six month tests.

[8] = 1e-4 mg/ml, Total of five replicates
[9] = 0.001 mg/ml, Total of five replicates
[10] = 0.01 mg/ml, Total of five replicates
[11] = 0.1 mg/ml, Total of five replicates

SMILES: O.O.O.O=[N+]([O-])[O-].O=[N+]([O-])[O-].[Cu+2] [Copper (II) Nitrate trihydrate, copper (II) nitrate trihydrate]
- No. of Oyster ([1]; CuAB paint): 1
- No. of Oyster ([1]; CuSP paint): 2
- No. of Tube-worms [2]: 2 and 1
- edge No of Barnacles ([3]; CuAB paint): 3
- Maximum diameter in mm ([3]; CuAB paint, nitrate trihydrate): 10 mm and 11 mm and 9 mm
- No. of barnacles on the coated surface ([3]; CuSP paint): 84
- % of the surface with barnacles fouling ([3]; CuSP paint, nitrate trihydrate): 50% and 40% and 60%
- Maximum diameter in mm ([3]; CuSP paint, nitrate trihydrate): 10 mm and 11 mm

SMILES: CSCCC(O)C(=O)[O-].CSCCC(O)C(=O)[O-].[Zn+2] (stereo not shown) [HMTBA-Zn, zinc 2-hydroxy-4-methylthiobutanoate chelate]
- % of set [4, 8]: 61%
- Non set [4, 8]: 122
- Set [4, 8]: 191
- % of set ([4]; 1e-4 mg/ml, single replicate): 57% and 60% (2×) and 77% and 55%
- Non set ([4]; 1e-4 mg/ml, single replicate): 28 and 21 and 12 and 25 and 36
- Set ([4]; 1e-4 mg/ml, single replicate): 37 and 31 and 41 and 38 and 44
- % of set [4, 9]: 58%
- Non set [4, 9]: 135
- Set [4, 9]: 187
- % of set ([4]; 0.001 mg/ml, single replicate): 62% and 78% and 69% and 41% and 42%
- Non set ([4]; 0.001 mg/ml, single replicate): 30 and 14 and 16 and 38 and 37
- Set ([4]; 0.001 mg/ml, single replicate): 49 (2×) and 36 and 26 and 27
- appearance and swimming behavior of cyprids ([4]; 0.01 mg/ml and higher (so in the source)): no adverse effects
- % of set [4, 10]: 32%
- Non set [4, 10]: 207
- Set [4, 10]: 99
- % of set ([4]; 0.01 mg/ml, single replicate): 30% and 26% and 40% and 32% and 35%
- Non set ([4]; 0.01 mg/ml, single replicate): 49 and 54 and 44 and 34 and 26
- Set ([4]; 0.01 mg/ml, single replicate): 21 and 19 and 29 and 16 and 14
- toxic effects on the cyprids ([4]; 0.1 mg per ml): death of all cyprids
- % of set [4, 11]: 0%
- Non set [4, 11]: 346
- Set [4, 11]: 0
- % of set ([4]; 0.1 mg/ml, single replicate): 0%
- Non set ([4]; 0.1 mg/ml, single replicate): 92 and 69 and 63 and 58 and 64
- Set ([4]; 0.1 mg/ml, single replicate): 0
- EC50 ([4]; barnacle cyprids not settled/attached to Petri dish, probit analysis): 5.7 µg/mL
- inhibition of barnacle cyprid settlement ([4]; in vivo): biologically active as inhibitors of barnacle cyprid settlement
- SLOPE ([4]; probit analysis, barnacle settlement): 1.564
- NO. RESPONDING ([4]; probit data as input, DOSE .00001): 97
- solubility in seawater [5]: soluble in seawater at the levels added
- Total barnacle Count ([6]; CUAB coating, 1% (w/w)): 123
- Mean ± SD (barnacle count) ([6]; CUAB coating, 1% (w/w)): 30.8 ± 11.6
- Total barnacle Count ([6]; CUAB coating, 3% (w/w)): 52
- Mean ± SD (barnacle count) ([6]; CUAB coating, 3% (w/w)): 13.0 ± 10.7
- Total barnacle Count ([6]; CUAB coating, 5% (w/w)): 1
- Mean ± SD (barnacle count) ([6]; CUAB coating, 5% (w/w)): 0.3 ± 0.4
- Total barnacle Count ([6]; CUAB coating, 10% (w/w)): 101
- Mean ± SD (barnacle count) ([6]; CUAB coating, 10% (w/w)): 25.3 ± 2.9
- Total barnacle Count ([6]; CUSP coating, 1% (w/w)): 1
- Mean ± SD (barnacle count) ([6]; CUSP coating, 1% (w/w)): 0.3 ± 0.4
- Total barnacle Count ([6]; CUSP coating, 3% (w/w)): 0
- Mean ± SD (barnacle count) ([6]; CUSP coating, 3% (w/w)): 0
- Total barnacle Count ([6]; CUSP coating, 5% (w/w)): 0
- Mean ± SD (barnacle count) ([6]; CUSP coating, 5% (w/w)): 0
- Total barnacle Count ([6]; CUSP coating, 10% (w/w)): 2
- Mean ± SD (barnacle count) ([6]; CUSP coating, 10% (w/w)): 0.5 ± 0.9
- Total barnacle Count ([6]; MFAB coating, 1% (w/w)): 0
- Mean ± SD (barnacle count) ([6]; MFAB coating, 1% (w/w)): 0
- Total barnacle Count ([6]; MFAB coating, 3% (w/w)): 3
- Mean ± SD (barnacle count) ([6]; MFAB coating, 3% (w/w)): 0.8 ± 1.3
- Total barnacle Count ([6]; MFAB coating, 5% (w/w)): 1
- Mean ± SD (barnacle count) ([6]; MFAB coating, 5% (w/w)): 0.3 ± 0.4
- Total barnacle Count ([6]; MFAB coating, 10% (w/w)): 7
- Mean ± SD (barnacle count) ([6]; MFAB coating, 10% (w/w)): 1.8 ± 1.3
- comparative performance ([6]; copper ablative coatings, 5%, six months): outperformed
- efficacy / barnacle settlement ([6]; copper self-polishing and metal-free ablative coatings, six months of exposure): significant efficacy
- LS MEAN BARNACLES ([7]; CUSP PAINT): 3
- LS MEAN BARNACLES ([7]; MFAB PAINT): 1.5
